This is an account of results in PMC11755785 (Langmuir, 2025).

Type in all cases: physicochemical
The nature of data set [1]: Molar absorption coefficients of 270 and 360 nm peaks (UV–vis calibrated by NMR molar ratio). From the text:
From NMR titration, the diketo and enol forms were expected to be 15.3 and 84.7%, respectively. Therefore, the abscissae of the regression lines were condensed to the species contents, leading to the molar absorption coefficients (i.e., absorbance gradients to the molarity) for the diketo and keto-enol forms being approximately 8.1 × 10^7 and 4.3 × 10^7 L/mol. Figure S13 confirms that the molar absorption coefficients for the diketo and keto-enol forms in the isochoric acetonitrile/water solvent were approximately 13.8 × 10^7 and 3.6 × 10^7 L/mol, respectively. The obtained parameters allowed the absorbance to be converted into AVB molarity.

Data set [2] can be described thus: UVA1 (365 nm) photodegradation in aqueous buffer, UV–vis spectra / RP-HPLC. Conditions: for UVA1 photodegradation (spectral change): 50 μM, aqueous; for diketo increase to the keto-enol decrease: UVA1 365 nm. The procedure: (§1) The samples were obtained after passage for appropriate periods and measured using an UV–vis spectrophotometer in the maximum range between 200 and 700 nm (arranged on demand) from long wavelengths toward short wavelengths to avoid unnecessary irradiation of the UV region. To obtain HPLC chromatograms, aliquots of the UV-irradiated solution were obtained by pipetting at 0, 1/5, 1/2, 1, 2, 3, 4, 24, 48, 72, 96, 120, 144, and 168 h for AVB and at 0, 1, 2, 3, and 18 h for CUR. To obtain those of OXB in the absence or presence of β-CD, the invariable samples were certified at 0 and 48 h. For the samples in acetonitrile aqueous solution or methanol aqueous solution at a ratio of 7:3, the time evolution of the UVA1 irradiated solution was examined under similar conditions.

Data set [3] is described as follows: Photostability under solar light, UV–vis spectra. The following applies: solar light 4 h; 50 μM; presence or absence of β-CD. The procedure:
The photostability of the drug under solar light was evaluated using UV–vis spectral measurements. Sample solutions were exposed to solar light outdoors at a sunny location on a latitude of 35.92° N and a longitude of 139.91° E for 4 h, from 12:00 to 16:00, at an average temperature of 284.55 K.

Data set [4] in a line: UVA1 (365 nm) photodegradation in isochoric acetonitrile/water solvent. The following applies: UVA1 365 nm, 25 μM. The procedure:
as §1

Data set [5] can be described thus: 1H NMR titration of keto-enol and diketo tautomeric species. The procedure:
^1H NMR measurements were conducted using a 400 MHz NMR spectrometer (JNM-ECZ 400 S, Japan Electronics Co., Ltd., Tokyo, Japan). Sample solutions were prepared using D2O and methanol-d4 as the protic solvent, acetonitrile-d3 as the aprotic solvent, and their mixtures, with sample concentrations exceeding 1.5% (w/v). The chemical shifts of the samples were calibrated using the internal tetramethylsilane (TMS) signal as the zero point, whereas the solvent signals in the literature served as reference points. When sodium salts were required, the neutral AVB species in D2O were dissolved in equimolar amounts of aqueous NaOH and methanol-d4, followed by drying under reduced pressure in a rotary evaporator and heating to dryness below Tm of the sodium salts. The formation of sodium salts was confirmed by measuring Tm using a differential scanning calorimeter (DSC8230, Rigaku Co., Ltd., Tokyo, Japan).
In the one-dimensional (1D) ^1H NMR spectra, the integral intensities correspond to the relative stoichiometry of protons for the species, except for the signals assigned to the stable isotopes of deuterated solvents. We could recognize the aromatic proton signals of AVB, but the corresponding signals sometimes overlapped between its keto-enol and diketo species, depending upon the solvent composition. The signals of the aromatic protons at the para positions to the keto/enol substituents were neglected because of the high probability of overlap, in which the chemical shift drifts, Δδ, related to the shielding effect are not noticeably accompanied by the electronic states in the keto/enol substituents.
We chose the signals of the aromatic protons at the ortho positions and the aliphatic protons at the ortho substituents (tert-butyl and methoxy groups) to keto/enol substituents and measured their integral intensities. Using the simultaneous equations built as linear combinations of integral values for the isolated and overlapping signals, we determined the molar ratio of the keto-enol and diketo species.

Data set [6] in a line: Phase-solubility diagram with HP-β-CD. Further details: stability constant K1:2 with HP-β-CD: unit not given here.
Data set [7] is described as follows: Flask-shaking 1-octanol/water partition, log D–pH profile fitted to Avdeef's diagram. Conditions: modified Britton–Robinson buffers pH 5–11.5, 298 K. The procedure:
The aqueous-phase solvents were prepared by mixing 25 mM KH2PO4 and 25 mM Na2HPO4 solutions in 25 mM Pi buffer. The pH was adjusted before fixing the prescribed concentrations of the acid components of the buffer. The JP1 and JP2 buffer solutions were 10 mM sodium citrate/HCl buffer (pH 1.2) and Pi buffer (pH 6.8), which were prepared in compliance with the description for solution media for the dissolution test in Japanese Pharmacopeia (JP)-implemented international harmonization. The modified Britton–Robinson universal pH buffer comprised 28.6 mM KH2PO4, 28.6 mM HBO2, and 28.6 mM NaCl, titrated with 1 M NaOH (here, modified means elimination of barbital to cancel its interaction with organic solutes). For the partition equilibrium examination, the aqueous saturated 1-octanol phase comprised 1-octanol, which was flooded with a modified Britton–Robinson buffer adjusted to the appropriate pH in advance.
The hydrophobic drug dissolved in the aqueous saturated 1-octanol phase was mixed with an isochoric solution of the modified Britton–Robinson buffer (pH 5–11.5), saturated with 1-octanol. Thereafter, the samples in the screw-capped vials were machine-shaken at 298 K in a thermostatic chamber for 60 min and subsequently kept stationary for 60 min; the procedure corresponds to the conventional “flask-shaking” method.[41]−[43] After settling, the pH in the aqueous phase was confirmed using pH indicator strips (MColoHast pH 0–6.0, MQuant pH 7.5–14, and MQuant pH 0–14, Merck, Germany) to be that of the adjusted pH value. Aliquots (10 μL) from the 1-octanol and the aqueous layers were injected into the HPLC instrument. The 1-octanol/water partition coefficients, log P (equivalent to log KOW), and acid dissociation constants, pKa, were optimized using curve fitting, approximated by eq 1 [drawing 1] 1 which is Avdeef’s diagram[44] derived from the Henderson–Hasselbalch expression for the equilibrium between the protonated and deprotonated species. The curve-fitting procedures used the solver module of Microsoft Excel 2016 with the implemented GRG nonlinear option. Approximate curves corresponding to these optimized parameters were drawn, and the pKa and log P values for AVB, OXB, and CUR were obtained.

[8] abbreviates: 70% methanol (methanol-d4/D2O = 7:3).
[9] abbreviates: isochoric acetonitrile/water solvent.
Where [10] appears, read: regression with 2-order equation, pH 6.8.

Regarding “p-tert-butyl-p-methoxydibenzoylmethane [AVB]”, the “molar absorption coefficient, diketo form (270 nm)” value in data set [1] (isochoric acetonitrile/water) is “approximately 13.8 × 10^7 L/mol”. Besides, the “molar absorption coefficient, keto-enol form (360 nm)” value in data set [1] (isochoric acetonitrile/water) is around 3.6e+07 L/mol; in data set [1] (methanol/H2O = 7:3), around 4.3e+07 L/mol. The figures for the “UVA1 photodegradation (spectral change)” value in data set [2] (absence of β-CD) and in data set [2] (presence of β-CD) were “gradually photodegraded” and “insignificantly degraded”, respectively. For the same substance, the “diketo increase to the keto-enol decrease” value in data set [2] (25 μM β-CD) came out at 20.1%; in data set [2] (4 mM β-CD) it was 23.9%; in data set [2] (no β-CD), 19.3%. The “stability under solar light compared to UVA1 irradiation” value in data set [3] is “no significant changes in stability”. In addition, the “effect of equimolar and 4 mM β-CD on photodegradation velocity / first-order rate” value in data set [4] was “reduced the photodegradation velocity”. Also, the “molar ratio of diketo species” value in data set [5] (setting [8]) amounted to 15.3%; in data set [5] (setting [9]), 9.3%. In addition, the “molar ratio of keto-enol species” value in data set [5] (setting [8]) turned out to be 84.7%; in data set [5] (setting [9]) it was 90.7%. Moreover, the “stability constant K1:2 with HP-β-CD” value in data set [6] (25 mM Pi/NaOH buffer pH 6.8, 298 K, Figure 2) amounted to 40.4. Further, the “stability constant K1:1 with HP-β-CD” value in data set [6] (25 mM Pi/NaOH buffer pH 6.8, 298 K, Figure 2, in M-1 (unit assumed)) is reported as 90.3. Further, the “stability constant K1:1 with HP-β-CD (equimolar complex)” value in data set [6] (setting [10]) worked out at 90.3 L/mol. The “stability constant K1:2 with HP-β-CD (1:2-ratio complex)” value in data set [6] (setting [10]) was found to be 40.4 L^2/mol^2. In data set [7] (from log D–pH curve fitting), the “acid dissociation constant, pKa” value came out at 8.59. Besides, in data set [7] (neutral form, curve fitting), the “1-octanol/water partition coefficient, log P” value was 4.27.
